Results: BindingDB's records for doi:10.7270/Q29G5KF0 (The Scripps Research Institute Molecular Screening Center, 2013)

Target: Kallikrein-7 (Homo sapiens, UniProt P49862)
Sequence (P49862 whole entry): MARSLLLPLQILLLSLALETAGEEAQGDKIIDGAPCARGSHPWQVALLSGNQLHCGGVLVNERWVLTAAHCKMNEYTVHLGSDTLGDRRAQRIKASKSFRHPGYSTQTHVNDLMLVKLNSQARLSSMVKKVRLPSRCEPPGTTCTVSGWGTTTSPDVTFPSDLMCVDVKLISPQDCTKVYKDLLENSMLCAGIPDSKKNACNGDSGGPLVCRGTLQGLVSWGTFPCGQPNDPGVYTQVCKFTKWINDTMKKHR

Structure (SMILES)	EC50 [µM]
COCCN1Cc2cc(=O)n3c(nc4ccccc43)c2=C1N [SMR000369291]	> 69.5
C=CCOC(=O)C1=C(C)N=C(SCC(=O)NC(=O)OCC)C(C#N)C1c1cccnc1 (stereo not given) [prop-2-enyl 5-cyano-6-[2-(ethoxycarbonylamino)-2-oxidanylidene-ethyl]sulfanyl-2-methyl-4-pyridin-3-yl-1,4-dihydropyridine-3-carboxylate]	4.56
COc1ccccc1C1CC(c2ccccc2)=Nc2nnnn21 (stereo not given) [SMR000107979]	12.1
COC(=O)c1[nH]n(-c2ccccc2)c2c(O)n(-c3ccccc3OC)c(=O)c1-2 [methyl 5-(2-methoxyphenyl)-4,6-bis(oxidanylidene)-1-phenyl-3a,6a-dihydropyrrolo[3,4-c]pyrazole-3-carboxylate]	> 69.5
CC1=NC2=C(C(=O)CC(C)(C)C2)C(c2cccnc2)C1C#N (stereo not given) [2,7,7-trimethyl-5-oxo-4-pyridin-3-yl-1,4,6,8-tetrahydroquinoline-3-carbonitrile]	> 69.5
COC(=O)C1=CN=CC(C(=O)OC)C1c1ccc(C(=O)OC)cc1 (stereo not given) [MLS000111732]	> 69.5
COc1ccccc1C1CC(c2ccc(C)cc2)=Nc2nnnn21 (stereo not given)	23.5
COc1ccc(C2C(C(=O)N3CCOCC3)=C(C)N=C3CC(C)(C)CC(=O)C32)c(OC)c1 (stereo not given) [MLS000076547]	52.4
COC(=O)c1ccc(C2C3=C(CC(C)(C)CC3=O)N=C(C)C2C#N)cc1 (stereo not given) [methyl 4-(3-cyano-2,7,7-trimethyl-5-oxo-1,4,6,8-tetrahydroquinolin-4-yl)benzoate]	20.8
COC(=O)CC1=C(C(=O)OC)C(c2ccccc2[N+](=O)[O-])C(C#N)C(=N)O1 [methyl (4S)-6-amino-5-cyano-2-(2-methoxy-2-oxoethyl)-4-(2-nitrophenyl)-4H-pyran-3-carboxylate]	8.2
